Source: publication PMC6026847, “Synthesis and Evaluation of the First Fluorescent Antagonists of the Human P2Y2 Receptor Based on AR-C118925” (Journal of Medicinal Chemistry, 2018)
Like-named read-outs stand apart in the source and are kept apart here.

Target: T1, hP2Y2R (Homo sapiens, UniProt P41231)
T1 construct: The 1321N1 cells expressing wild-type P2Y2R (P2Y2R-1321N1) were gifted by Dr. Elizabeth Rosethorne; expressed in transfected cells; host or cells: 1321N1 astrocytoma cells (P2Y2R-1321N1), gifted
T1 sequence (P41231 whole entry): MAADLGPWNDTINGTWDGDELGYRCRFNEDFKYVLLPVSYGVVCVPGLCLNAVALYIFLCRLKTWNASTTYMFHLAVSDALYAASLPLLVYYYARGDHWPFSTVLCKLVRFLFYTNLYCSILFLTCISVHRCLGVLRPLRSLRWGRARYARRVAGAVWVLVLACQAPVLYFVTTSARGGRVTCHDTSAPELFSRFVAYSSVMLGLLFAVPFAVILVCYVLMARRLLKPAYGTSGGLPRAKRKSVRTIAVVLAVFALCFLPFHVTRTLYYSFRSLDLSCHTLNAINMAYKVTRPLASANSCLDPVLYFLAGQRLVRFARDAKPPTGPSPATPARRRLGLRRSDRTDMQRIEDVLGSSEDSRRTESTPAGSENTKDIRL
Experiment: Calcium-mobilization assay in P2Y2-1321N1 cells (antagonism of UTPγS)
Assay type: cell-based
Details: for Kb / hP2Y2 pKb: Gaddum equation, shift of UTPγS concentration–response curve by a single antagonist concentration, mean ± SEM; for Kb: read-out: hP2Y2 pKb (converted); for hP2Y2R antagonist activity in words: calcium-mobilization assay

| Compound | Kb (Table 1) | hP2Y2R antagonist activity in words | hP2Y2 pKb (Table 2) | also measured |
| --- | --- | --- | --- | --- |
| COCCNc1nc2c(s1)C=Cc1cc(Cl)ccc1C2c1cn(C)c(=O)[nH]c1=S (racemic) [Example 14, 5-(7-Chloro-2-((2-methoxyethyl)amino)-4H-benzo[5,6]cyclohepta[1,2-d]thiazol-4-yl)-1-methyl-4-thioxo-3,4-dihydropyrimidin-2(1H)-one] | – | – | – | Kb (Table 2): 251 nM |
| Cc1ccc2c(c1)C=Cc1cc(C)ccc1C2c1cn(Cc2nc(C(=O)Nc3nnn[nH]3)cs2)c(=O)[nH]c1=S [Example 3, 2-((5-(2,8-Dimethyl-5H-dibenzo[a,d][7]annulen-5-yl)-2-oxo-4-thioxo-3,4-dihydropyrimidin-1(2H)-yl)methyl)-N-(1H-tetrazol-5-yl)thiazole-4-carboxamide] | 77.6 nM | – | – | – |
| Cc1ccc2c(c1)C=Cc1cc(C)ccc1C2c1cn(C)c(=O)[nH]c1=S [Example 4, 5-(2,8-Dimethyl-5H-dibenzo[a,d][7]annulen-5-yl)-1-methyl-4-thioxo-3,4-dihydropyrimidin-2(1H)-one] | – | inactive | – | hP2Y2 pKb (Table 1): IA ^b (IA = inactive; i.e., less than a 50% inhibition of the response to 0.1 μM UTPγS in the presence of a 10 μM concentration of the compound) |
| Cc1nc2c(s1)C=Cc1cc(Cl)ccc1C2c1cn(Cc2nc(C(=O)Nc3nnn[nH]3)cs2)c(=O)[nH]c1=S (stereo not drawn) [Example 5, 2-((5-(7-Chloro-2-methyl-4H-benzo[5,6]cyclohepta[1,2-d]thiazol-4-yl)-2-oxo-4-thioxo-3,4-dihydropyrimidin-1(2H)-yl)methyl)-N-(1H-tetrazol-5-yl)thiazole-4-carboxamide] | 331 nM | – | – | – |
| Cc1nc2c(s1)C=Cc1cc(Cl)ccc1C2c1cn(C)c(=O)[nH]c1=S (stereo not drawn) [Example 6, 5-(7-Chloro-2-methyl-4H-benzo[5,6]cyclohepta[1,2-d]thiazol-4-yl)-1-methyl-4-thioxo-3,4-dihydropyrimidin-2(1H)-one] | 1020 nM | – | – | – |
| Cn1cc(C2c3ccc(Cl)cc3C=Cc3sc(N)nc32)c(=S)[nH]c1=O (stereo not drawn) [Example 7, 5-(2-Amino-7-chloro-4H-benzo[5,6]cyclohepta[1,2-d]thiazol-4-yl)-1-methyl-4-thioxo-3,4-dihydropyrimidin-2(1H)-one] | – | – | – | Kb (Table 2): 275 nM |

Continued, in another order:

| Kb (Table 1) | hP2Y2R antagonist activity in words | Compound | hP2Y2 pKb (Table 2) | also measured |
| --- | --- | --- | --- | --- |
| – | inactive | Cn1cc(C2c3ccc(Cl)cc3C=Cc3sc(Nc4ccccc4)nc32)c(=S)[nH]c1=O (stereo not drawn) [Example 8, 5-(7-Chloro-2-(phenylamino)-4H-benzo[5,6]cyclohepta[1,2-d]thiazol-4-yl)-1-methyl-4-thioxo-3,4-dihydropyrimidin-2(1H)-one] | IA ^b (3) (IA = inactive; i.e., less than a 50% inhibition of the response to 0.1 μM UTPγS in the presence of a 10 μM concentration of the compound (n = 3)) | – |
| – | inactive | Cn1cc(C2c3ccc(Cl)cc3C=Cc3sc(NCc4ccccc4)nc32)c(=S)[nH]c1=O (stereo not drawn) [Example 9, 5-(2-(Benzylamino)-7-chloro-4H-benzo[5,6]cyclohepta[1,2-d]thiazol-4-yl)-1-methyl-4-thioxo-3,4-dihydropyrimidin-2(1H)-one] | IA (3) (IA = inactive; i.e., less than a 50% inhibition of the response to 0.1 μM UTPγS in the presence of a 10 μM concentration of the compound (n = 3)) | – |
| – | inactive | Cn1cc(C2c3ccc(Cl)cc3C=Cc3sc(NCCc4ccccc4)nc32)c(=S)[nH]c1=O (stereo not drawn) [Example 10, 5-(7-Chloro-2-(phenethylamino)-4H-benzo[5,6]cyclohepta[1,2-d]thiazol-4-yl)-1-methyl-4-thioxo-3,4-dihydropyrimidin-2(1H)-one] | IA (3) (IA = inactive; i.e., less than a 50% inhibition of the response to 0.1 μM UTPγS in the presence of a 10 μM concentration of the compound (n = 3)) | – |
| – | inactive | CN1CCN(c2nc3c(s2)C=Cc2cc(Cl)ccc2C3c2cn(C)c(=O)[nH]c2=S)CC1 (stereo not drawn) [Example 11, 5-(7-Chloro-2-(4-methylpiperazin-1-yl)-4H-benzo[5,6]cyclohepta[1,2-d]thiazol-4-yl)-1-methyl-4-thioxo-3,4-dihydropyrimidin-2(1H)-one] | IA (3) (IA = inactive; i.e., less than a 50% inhibition of the response to 0.1 μM UTPγS in the presence of a 10 μM concentration of the compound (n = 3)) | – |
